Publication PMC11530130, “Peripherally restricted PICK1 inhibitor mPD5 ameliorates pain behaviors in murine inflammatory and neuropathic pain models” (JCI Insight, 2024)
Several values for one entry are separate records, joined by “and”; a condition that tells them apart may be missing. Equal entries are not always repeated.

Tested on: mice, spared nerve injury (SNI) model
Assay: Single exposure place preference (sePP), SNI mice
Format: in vivo, mouse
Parameters: time spent in the paired compartment, individual mice: reference not given here
Description: Single exposure place preference.
Initial perception of the drugs was measured by single exposure place preference experiments performed in an elongated three compartment apparatus (67.5 cm x 24 cm) with a biased design of different floor textures and wall patterns and a neutral zone in the middle. We have […]
compartment and that a single exposure of psychostimulants in the grey compartment sufficiently changes the preference towards that compartment (9-11). For further details of the setup, we refer to (10). Experiments lasted three days with exposure sessions on days one and two and a preference test on day three. […]
Mice were left in Med-Associates square behavioral chambers (27 cm x 27 cm) to freely roam around for 60 min, four days in a row. […] On day three, both control and SNI mice were placed directly in the chambers and recorded for 60 min. On day four, control mice were injected s.c. with PBS, and SNI mice were injected with either 10 μmol/kg mPD5 or PBS immediately before being placed in the chambers and recorded for 60 min. The recordings were analyzed using the Avisoft SASLab Pro software (Version 5.02.07, Avisoft Bioacoustics) as described in (12), applying a fast fourier transformation (FFT) (1024 FTT length, 100% frame size, Blackman window, and 87.5% time window overlap). […]

## CCCCCCCCCCCCCC(=O)N(CCOCCOCCC(=O)N[C@@H](Cc1c[nH]cn1)C(=O)N[C@@H](Cc1c[nH]c2ccccc12)C(=O)N[C@@H](CC(C)C)C(=O)N[C@@H](CCCCN)C(=O)N[C@H](C(=O)O)C(C)C)CCOCCOCCC(=O)N[C@@H](Cc1c[nH]cn1)C(=O)N[C@@H](Cc1c[nH]c2ccccc12)C(=O)N[C@@H](CC(C)C)C(=O)N[C@@H](CCCCN)C(=O)N[C@H](C(=O)O)C(C)C [mPD5, myristoyl-NPEG4-(HWLKV)2]
SNI mice conditioned with 30 μmol/kg
  time spent in the paired compartment, individual mice: 0.9648 and 1.369 and 0.722 and 0.8519 and 0.9815 and 0.6715 and 0.5887 and 0.7233 and 1.085 and 1.235 and 0.7664
SNI, male mice, s.c. 30 μmol/kg
  time spent in the paired chamber compared to PBS (sePP): did not change the time spent in the paired chamber
